Literature values, collected in US7781400B2, “Pharmaceutical compositions comprising dextran with a molecular weight of 1.0-100 KDA and processes for their preparation” (BOWS Pharmaceuticals AG, priority 2006, dated 2010).

Conditions: in vivo

Substance: polyglycolide
- adverse tissue response rates: up to 47%
